Data from patent US20230233569A1 (Revolution Medicines, Inc., priority 2020, published 2023).
Several values for one entry are separate records, joined by “and”; a condition that tells them apart may be missing. Identical values can stand only once. Like-named read-outs stand apart in the source and are kept apart here.

Assays:
[1] = system: K-Ras G12C (NCI-H358 cells); test: Potency assay: pERK (AlphaLISA SureFire or In-Cell Western); type: cell-based; settings: Homo sapiens
Experimental: (§1) The purpose of this assay is to measure the ability of test compounds to inhibit K-Ras in cells. […] This procedure measures a decrease in cellular pERK in response to test compounds.
(§2) NCI-H358 cells were grown and maintained using media and procedures recommended by the ATCC. On the day prior to compound addition, cells were plated in 384-well cell culture plates (40 μl/well) and grown overnight in a 37° C., 5% CO2 incubator. Test compounds were prepared in 10, 3-fold dilutions in DMSO, with a high concentration of 10 mM. On the day of assay, 40 nL of test compound was added to each well of cell culture plate using an Echo550 liquid handler (LabCyte®). Concentrations of test compound were tested in duplicate. After compound addition, cells were incubated 4 hours at 37° C., 5% CO2. Following incubation, culture medium was removed and cells were washed once with phosphate buffered saline.
(§3) In some experiments, cellular pERK level was determined using the AlphaLISA SureFire Ultra p-ERK1/2 Assay Kit (PerkinElmer). Cells were lysed in 25 μL lysis buffer, with shaking at 600 RPM at room temperature. […] After a 2-hour incubation in the dark, 5 μL donor mix was added, plate was sealed, and incubated 2 hours at room temperature. Signal was read on an Envision plate reader (PerkinElmer) using standard AlphaLISA settings. Analysis of raw data was carried out in Excel (Microsoft) and Prism (GraphPad). Signal was plotted vs. the decadal logarithm of compound concentration, and IC50 was determined by fitting a 4-parameter sigmoidal concentration response model.
In other experiments, cellular pERK was determined by In-Cell Western. […] Fixed cells were washed 4 times for 5 minutes with TBS containing 0.1% Triton X-100 (TBST) and then blocked with 100 μL Odyssey blocking buffer (LI-COR) for 60 minutes at room temperature. […] Cells were washed 4 times for 5 minutes with TBST. Secondary antibody (IR-800CW rabbit, LI-COR, diluted 1:800) and DNA stain DRAQ5 (LI-COR, diluted 1:2000) were added and incubated 1-2 hours at room temperature. Cells were washed 4 times for 5 minutes with TBST. Plates were scanned on a LI-COR Odyssey CLx Imager. Analysis of raw data was carried out in Excel (Microsoft) and Prism (GraphPad). Signal was plotted vs. the decadal logarithm of compound concentration, and IC50 was determined by fitting a 4-parameter sigmoidal concentration response model.
as §1
as §2, with “mM. On day of” for “mM. On the day of”, “assay, 40 nl of test” for “assay, 40 nL of test”
as §3, with “μl” for “μL”, “sealed” for “sealed,”

[2] = system: NCI-H358 (K-Ras G12C); test: CellTiter-Glo cell viability assay, 5-day treatment; type: cell-based; settings: Homo sapiens, NCI-H358, H358, K-Ras G12C; read-out: Additional H358 Cell Viability assay data (K-Ras G12C, IC50)
In short: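 Five-day compound treatment of plated cells; luminescent read after ~30 min at RT. Percent-of-DMSO data fit to a four-parameter logistic model.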

[3] = biological target: KRAS G12D (Homo sapiens, UniProt P01116+P62937, G12D); test: Disruption of BRAF RBD interaction with Ras (FRET / MOA assay, with Cyclophilin A); type: biochemical
Chain of KRAS G12D (P01116 1-169 isoform P01116-2 G12D limits assumed): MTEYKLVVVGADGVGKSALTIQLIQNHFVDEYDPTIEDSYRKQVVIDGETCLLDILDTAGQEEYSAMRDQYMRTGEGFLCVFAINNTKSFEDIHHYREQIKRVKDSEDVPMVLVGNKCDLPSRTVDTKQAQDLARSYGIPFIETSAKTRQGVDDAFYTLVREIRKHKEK
Chain of KRAS G12D (P62937 whole entry): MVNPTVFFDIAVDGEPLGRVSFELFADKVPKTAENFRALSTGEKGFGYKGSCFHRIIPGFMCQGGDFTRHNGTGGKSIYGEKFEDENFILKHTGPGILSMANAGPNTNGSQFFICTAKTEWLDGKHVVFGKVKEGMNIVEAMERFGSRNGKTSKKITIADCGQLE
In short: (§4)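 Here, compound titrations (ten points, factor 3, from 30 μM final) act on nucleotide-bound K-Ras and Cyclophilin A, and ternary complex formation disrupts the RAF RBD interaction.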

[4] = biological target: KRAS WT (Homo sapiens, UniProt P01116+P62937); test: as above; type: biochemical
Chain of KRAS WT (P01116 1-169 isoform P01116-2 limits assumed): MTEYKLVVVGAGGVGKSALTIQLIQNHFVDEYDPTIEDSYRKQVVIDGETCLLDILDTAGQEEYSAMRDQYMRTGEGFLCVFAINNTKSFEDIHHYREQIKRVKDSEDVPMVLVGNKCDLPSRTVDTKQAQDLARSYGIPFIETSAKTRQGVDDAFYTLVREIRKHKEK
Chain of KRAS WT (P62937 whole entry): as the sequence (P62937 whole entry) above
In short: as §4

[5] = biological target: NRAS G12C (Homo sapiens, UniProt P01111+P62937, G12C); test: as above; type: biochemical
Chain of NRAS G12C (P01111 whole entry G12C): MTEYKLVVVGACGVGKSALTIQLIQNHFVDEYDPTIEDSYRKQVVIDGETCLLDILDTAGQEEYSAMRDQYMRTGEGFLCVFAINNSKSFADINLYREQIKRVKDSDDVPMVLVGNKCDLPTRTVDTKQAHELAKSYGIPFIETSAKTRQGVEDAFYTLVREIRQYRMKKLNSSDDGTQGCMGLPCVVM
Chain of NRAS G12C (P62937 whole entry): as the sequence (P62937 whole entry) above

[6] = biological target: KRAS G13D (Homo sapiens, UniProt P01116+P62937, G13D); test: as above; type: biochemical
Chain of KRAS G13D (P01116 1-169 isoform P01116-2 G13D limits assumed): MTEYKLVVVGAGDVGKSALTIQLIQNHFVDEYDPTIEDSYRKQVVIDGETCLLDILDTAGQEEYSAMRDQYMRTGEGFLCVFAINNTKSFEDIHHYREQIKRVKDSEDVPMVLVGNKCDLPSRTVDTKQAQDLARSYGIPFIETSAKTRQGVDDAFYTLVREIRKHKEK
Chain of KRAS G13D (P62937 whole entry): as the sequence (P62937 whole entry) above
In short: as §4

[7] = biological target: KRAS G12V (Homo sapiens, UniProt P01116+P62937, G12V); test: as above; type: biochemical
Chain of KRAS G12V (P01116 1-169 isoform P01116-2 G12V limits assumed): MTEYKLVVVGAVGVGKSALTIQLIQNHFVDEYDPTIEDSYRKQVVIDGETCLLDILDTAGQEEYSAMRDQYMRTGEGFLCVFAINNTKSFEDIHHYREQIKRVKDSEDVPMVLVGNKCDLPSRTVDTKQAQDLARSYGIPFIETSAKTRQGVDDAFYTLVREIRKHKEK
Chain of KRAS G12V (P62937 whole entry): as the sequence (P62937 whole entry) above
In short: as §4

[8] = biological target: KRAS G12C (Homo sapiens, UniProt P01116+P62937, G12C); test: as above; type: biochemical
Chain of KRAS G12C (P01116 1-169 isoform P01116-2 G12C): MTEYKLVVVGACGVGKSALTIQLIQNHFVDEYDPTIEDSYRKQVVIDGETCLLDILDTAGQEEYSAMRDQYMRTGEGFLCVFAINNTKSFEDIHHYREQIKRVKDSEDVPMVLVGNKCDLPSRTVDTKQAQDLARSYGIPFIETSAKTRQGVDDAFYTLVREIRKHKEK
Chain of KRAS G12C (P62937 whole entry): as the sequence (P62937 whole entry) above
In short: as §4

[9] = biological target: KRAS G13C (Homo sapiens, UniProt P01116+P62937, G13C); test: as above; type: biochemical
Chain of KRAS G13C (P01116 1-169 isoform P01116-2 G13C): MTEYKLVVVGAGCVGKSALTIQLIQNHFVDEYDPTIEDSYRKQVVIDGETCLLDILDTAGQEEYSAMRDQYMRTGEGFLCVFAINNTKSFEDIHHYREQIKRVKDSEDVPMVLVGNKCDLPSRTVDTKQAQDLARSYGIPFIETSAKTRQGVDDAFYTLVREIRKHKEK
Chain of KRAS G13C (P62937 whole entry): as the sequence (P62937 whole entry) above
In short: as §4

[10] = biological target: KRAS G12S (Homo sapiens, UniProt P01116+P62937, G12S); test: as above; type: biochemical
Chain of KRAS G12S (P01116 1-169 isoform P01116-2 G12S limits assumed): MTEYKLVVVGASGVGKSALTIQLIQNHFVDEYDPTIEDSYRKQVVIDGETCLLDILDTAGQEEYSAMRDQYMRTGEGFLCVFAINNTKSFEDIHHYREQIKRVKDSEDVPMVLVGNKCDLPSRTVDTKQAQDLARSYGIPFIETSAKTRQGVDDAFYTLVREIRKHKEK
Chain of KRAS G12S (P62937 whole entry): as the sequence (P62937 whole entry) above
In short: as §4

[11] = NCI-H358, H358 KRAS G12C, read-out: pERK EC50
[12] = read-out: KRAS G12D FRET data, IC50
[13] = KRAS WT, read-out: KRAS WT FRET data IC50
[14] = NRAS G12C, read-out: NRAS G12C FRET data IC50
[15] = KRAS G13D, read-out: KRAS G13D FRET data IC50
[16] = KRAS G12V, read-out: KRAS G12V FRET data IC50
[17] = KRAS G12C, read-out: KRAS G12C FRET data IC50
[18] = KRAS G13C, read-out: KRAS G13C FRET data IC50
[19] = read-out: KRAS G12S FRET data, IC50

Structure (SMILES)	EC50 [1, 11] [nM]	IC50 [2] [nM]	IC50 [3, 12]	IC50 [4, 13]	IC50 [5, 14]	IC50 [6, 15]	IC50 [7, 16]	IC50 [8, 17]	IC50 [9, 18]	IC50 [10, 19]	EC50 ([1]; NCI-H358, read-out: pERK EC50) [nM]	IC50 ([3]; KRAS G12D FRET data, IC50) [nM]	IC50 ([4]; KRAS WT FRET data IC50, KRAS WT) [nM]	IC50 ([5]; NRAS G12C FRET data IC50, NRAS G12C) [nM]	IC50 ([6]; KRAS G13D FRET data IC50, KRAS G13D) [nM]	IC50 ([7]; KRAS G12V FRET data IC50, KRAS G12V) [nM]	IC50 ([8]; KRAS G12C FRET data IC50, KRAS G12C) [nM]	IC50 ([9]; KRAS G13C FRET data IC50, KRAS G13C) [nM]	IC50 ([10]; KRAS G12S FRET data, IC50) [nM]
C=CC(=O)N1CC[C@H](C(=O)N(C)[C@H](C(=O)N[C@H]2Cc3cc(O)cc(c3)-c3ccc4c(c3)c(c(-c3cc(CN(C)C)cnc3COC)n4CC)CC(C)(C)COC(=O)[C@@H]3CCCN(N3)C2=O)C(C)C)C1 [Example A149]	< 5000	10 to 100	1000 to 10000 nM	100 to 1000 nM	10 to 100 nM	100 to 1000 nM	100 to 1000 nM	10 to 100 nM	100 to 1000 nM	100 to 1000 nM	–	–	–	–	–	–	–	–	–
CCn1c(-c2cccnc2[C@H](C)OC)c2c3cc(ccc31)-c1cccc(n1)C[C@H](NC(=O)[C@H](C(C)C)N1CC[C@@]3(CCN(C(=O)C#C[C@@H]4COCCN4C)C3)C1)C(=O)N1CCC[C@H](N1)C(=O)OCC(C)(C)C2 [Example A549]	< 5000	< 10	–	–	–	–	–	–	–	–	–	–	–	–	–	–	–	–	–
C=CC(=O)N(C)CCN(C)C(=O)N(C)[C@H](C(=O)N[C@H]1Cc2nc(cs2)-c2ccc3c(c2)c(c(-c2cccnc2[C@H](C)OCC)n3CC)CC(C)(C)COC(=O)[C@@H]2CCCN(N2)C1=O)C(C)C [Example A437]	< 5000	10 to 100	1000 to 10000 nM	100 to 1000 nM	10 to 100 nM	1000 to 10000 nM	100 to 1000 nM	10 to 100 nM	100 to 1000 nM	100 to 1000 nM	–	–	–	–	–	–	–	–	–
CCn1c(-c2cccnc2[C@H](C)OC)c2c3cc(ccc31)-c1cc(O)cc(c1)C[C@H](NC(=O)[C@H](C(C)C)N(C)C(=O)[C@H]1CCN(C(=O)C#CCN3CCOCC3)C1)C(=O)N1CCC[C@H](N1)C(=O)OCC(C)(C)C2 [Example A182]	< 5000	10 to 100	1000 to 10000 nM and > 10000 nM	100 to 1000 nM and 1000 to 10000 nM	10 to 100 nM and < 10 nM	100 to 1000 nM and 1000 to 10000 nM	100 to 1000 nM and 1000 to 10000 nM	10 to 100 nM and < 10 nM	1000 to 10000 nM and 10 to 100 nM	100 to 1000 nM and 1000 to 10000 nM	–	–	–	–	–	–	–	–	–
C=CC(=O)N1CC[C@H](C(=O)N(C)[C@H](C(=O)N[C@H]2Cc3cccc(c3)-c3ccc4c(c3)c(c(-c3cccnc3[C@H](C)OC)n4CC)CC(C)(C)COC(=O)[C@@H]3CCCN(O3)C2=O)C(C)C)C1 [Example A284]	–	100 to 1000	–	–	–	–	–	–	–	–	< 5000	> 10000	> 10000	1000 to 10000	> 10000	> 10000	100 to 1000	1000 to 10000	> 10000
C=CC(=O)N1CC(NC[C@H](C(=O)N[C@H]2Cc3cc(O)cc(c3)-c3ccc4c(c3)c(c(-c3cccnc3COC)n4CC)CC(C)(C)COC(=O)[C@@H]3CCCN(N3)C2=O)C(C)C)C1 [Example A174]	< 5000	> 1000	> 10000 nM	> 10000 nM	1000 to 10000 nM	> 10000 nM	> 10000 nM	100 to 1000 nM	1000 to 10000 nM	> 10000 nM	–	–	–	–	–	–	–	–	–
